Test results taken from patent US6737383B1, “Herbicidal oxadiazolidines” (priority 1999, dated 2004).

How the values were obtained:
cocklebur = test: Test B pre/postemergence cocklebur; format: in vivo, Xanthium strumarium
How it was run: (§1)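 Herbicidal effect was estimated by eye on a ten-point control scale after plants spent twelve to sixteen days in a greenhouse following soil or foliar treatment. Foliar sprays targeted plants at one to four leaves; all doses were formulated in a non-phytotoxic solvent with surfactant.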

crabgrass = test: Test B pre/postemergence crabgrass; format: in vivo, Digitaria sanguinalis
How it was run: as §1

morningglory = test: Test B pre/postemergence morningglory; format: in vivo, Ipomoea hederacea
How it was run: as §1

rice = test: Test B flood test rice; format: in vivo, Oryza sativa
How it was run: (§2)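 Each value is a visual injury score relative to controls, with 10 meaning complete control and 0 no effect. Evaluation took place twelve to sixteen days after the 2-leaf-stage plants were treated and kept in the greenhouse.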

pigweed = test: Test B pre/postemergence pigweed; format: in vivo, Amaranthus retroflexus
How it was run: as §1

sugar beet = test: Test B pre/postemergence sugar beet; format: in vivo, Beta vulgaris
How it was run: as §1

rape = test: Test B pre/postemergence rape; format: in vivo, Brassica napus
How it was run: as §1

corn = test: Test B pre/postemergence corn; format: in vivo, Zea mays
How it was run: as §1

bamyardgrass = test: Test B flood test barnyardgrass; format: in vivo, Echinochloa crus-galli
How it was run: as §2

wheat = test: Test B pre/postemergence wheat; format: in vivo, Triticum aestivum
How it was run: as §1

purple nutsedge = test: Test B pre/postemergence purple nutsedge; format: in vivo, Cyperus rotundus; conditions: Postemergence
How it was run: as §1

giant foxtail = test: Test B pre/postemergence giant foxtail; format: in vivo, Setaria faberii
How it was run: as §1

wild oat = test: Test B pre/postemergence wild oat; format: in vivo, Avena fatua
How it was run: as §1

surinam grass = test: Test B pre/postemergence surinam grass; format: in vivo, Brachiaria decumbens
How it was run: as §1

duck salad = test: Test B flood test duck salad; format: in vivo, Heteranthera limosa
How it was run: as §2

smallflower flatsedge = test: Test B flood test smallflower flatsedge; format: in vivo, Cyperus difformis
How it was run: as §2

[1] = Preemergence, Rate 62 g/ha, scale of 0 to 10 where 0 is no effect and 10 is complete control
[2] = Preemergence, Rate 250 g/ha, scale of 0 to 10 where 0 is no effect and 10 is complete control
[3] = Preemergence, Rate 500 g/ha, scale of 0 to 10 where 0 is no effect and 10 is complete control
[4] = Rate 62 g/ha, Postemergence, scale of 0 to 10 where 0 is no effect and 10 is complete control
[5] = Rate 125 g/ha, Postemergence, scale 0 to 10
[6] = Rate 125 g/ha, Preemergence, scale of 0 to 10 where 0 is no effect and 10 is complete control
[7] = Rate 500 g/ha, Postemergence, scale 0 to 10, 0 no effect, 10 complete control
[8] = Rate 62 g/ha, headed Pre-emergence (flood test species), scale 0 to 10 (0 no effect, 10 complete control)
[9] = Rate 125 g/ha, Pre-emergence, flood test species, scale 0 to 10 where 0 is no effect and 10 is complete control
[10] = Rate 250 g/ha, Pre-emergence, flood-test species, scale 0 to 10, 0 is no effect, 10 is complete control
[11] = Rate 500 g/ha, Pre-emergence, flood test species, scale 0 to 10 (0 no effect, 10 complete control)

Cc1ccccc1N(C(=O)n1oc(=O)n(-c2ccccc2C)c1=O)C(C)C [Compound 236]
Cocklebur plant response rating (cocklebur; [1]): 0
Cocklebur plant response rating (cocklebur; [2]): 0
Plant response rating, Cocklebur (cocklebur; [3]): 0
Cocklebur plant response rating (cocklebur; [4]): 0
Cocklebur plant response rating (cocklebur; [5]): 0
Cocklebur plant response rating (cocklebur; [6]): 0
Plant response rating (0 to 10; 0 is no effect, 10 is complete control), Cocklebur (cocklebur; Rate 250 g/ha, Postemergence): 0
Cocklebur plant response rating (cocklebur; [7]): 0
Crabgrass plant response rating (crabgrass; [1]): 2
Crabgrass plant response rating (crabgrass; [2]): 5
Plant response rating, Crabgrass (crabgrass; [3]): 5
Crabgrass plant response rating (crabgrass; [4]): 0
Crabgrass plant response rating (crabgrass; [5]): 0
Crabgrass plant response rating (crabgrass; [6]): 3
Plant response rating (0 to 10; 0 is no effect, 10 is complete control), Crabgrass (crabgrass; Rate 250 g/ha, Postemergence): 0
Crabgrass plant response rating (crabgrass; [7]): 0
Morningglory plant response rating (morningglory; [1]): 0
Morningglory plant response rating (morningglory; [2]): 0
Plant response rating, Morningglory (morningglory; [3]): 0
Morningglory plant response rating (morningglory; [4]): 4
Morningglory plant response rating (morningglory; [5]): 4
Morningglory plant response rating (morningglory; [6]): 0
Plant response rating (0 to 10; 0 is no effect, 10 is complete control), Morningglory (morningglory; Rate 250 g/ha, Postemergence): 5
Morningglory plant response rating (morningglory; [7]): 6
Rice plant response rating (rice; [8]): 0
Rice plant response rating (rice; [9]): 0
Rice plant response rating (rice; [10]): 0
Rice plant response rating (rice; [11]): 0
Redroot pigweed plant response rating (pigweed; [1]): 0
Redroot pigweed plant response rating (pigweed; [2]): 0
Plant response rating, Redroot pigweed (pigweed; [3]): 0
Redroot pigweed plant response rating (pigweed; [4]): 0
Redroot pigweed plant response rating (pigweed; [5]): 0
Redroot pigweed plant response rating (pigweed; [6]): 0
Plant response rating (0 to 10; 0 is no effect, 10 is complete control), Redroot pigweed (pigweed; Rate 250 g/ha, Postemergence): 0
Redroot pigweed plant response rating (pigweed; [7]): 0
Sugarbeets plant response rating (sugar beet; [1]): 0
Sugarbeets plant response rating (sugar beet; [2]): 0
Plant response rating, Sugarbeets (sugar beet; [3]): 0
Sugarbeets plant response rating (sugar beet; [4]): 0
Sugarbeets plant response rating (sugar beet; [5]): 0
Sugarbeets plant response rating (sugar beet; [6]): 0
Plant response rating (0 to 10; 0 is no effect, 10 is complete control), Sugarbeets (sugar beet; Rate 250 g/ha, Postemergence): 0
Sugarbeets plant response rating (sugar beet; [7]): 0
Rape plant response rating (rape; [1]): 0
Rape plant response rating (rape; [2]): 0
Plant response rating, Rape (rape; [3]): 0
Rape plant response rating (rape; [4]): 0
Rape plant response rating (rape; [5]): 0
Rape plant response rating (rape; [6]): 0
Plant response rating (0 to 10; 0 is no effect, 10 is complete control), Rape (rape; Rate 250 g/ha, Postemergence): 0
Rape plant response rating (rape; [7]): 0
Corn plant response rating (corn; [1]): 0
Corn plant response rating (corn; [2]): 0
Plant response rating, Corn (corn; [3]): 0
Corn plant response rating (corn; [4]): 0
Corn plant response rating (corn; [5]): 0
Corn plant response rating (corn; [6]): 0
Plant response rating (0 to 10; 0 is no effect, 10 is complete control), Corn (corn; Rate 250 g/ha, Postemergence): 0
Corn plant response rating (corn; [7]): 0
Barnyardgrass plant response rating (bamyardgrass; [8]): 0
Barnyardgrass plant response rating (bamyardgrass; [9]): 0
Barnyardgrass plant response rating (bamyardgrass; [10]): 0
Barnyardgrass plant response rating (bamyardgrass; [11]): 0
Wheat plant response rating (wheat; [1]): 0
Wheat plant response rating (wheat; [2]): 0
Plant response rating, Wheat (wheat; [3]): 0
Wheat plant response rating (wheat; [4]): 0
Wheat plant response rating (wheat; [5]): 0
Wheat plant response rating (wheat; [6]): 0
Plant response rating (0 to 10; 0 is no effect, 10 is complete control), Wheat (wheat; Rate 250 g/ha, Postemergence): 0
Wheat plant response rating (wheat; [7]): 0
Nutsedge plant response rating (purple nutsedge; Rate 62 g/ha, scale of 0 to 10 where 0 is no effect and 10 is complete control): 0
Nutsedge plant response rating (purple nutsedge; Rate 125 g/ha, scale 0 to 10): 0
Plant response rating (0 to 10; 0 is no effect, 10 is complete control), Nutsedge (purple nutsedge; Rate 250 g/ha): 0
Nutsedge plant response rating (purple nutsedge; Rate 500 g/ha, scale 0 to 10, 0 no effect, 10 complete control): 0
Giant foxtail plant response rating (giant foxtail; [1]): 7
Giant foxtail plant response rating (giant foxtail; [2]): 9
Plant response rating, Giant foxtail (giant foxtail; [3]): 10
Giant foxtail plant response rating (giant foxtail; [4]): 0
Giant foxtail plant response rating (giant foxtail; [5]): 0
Giant foxtail plant response rating (giant foxtail; [6]): 7
Plant response rating (0 to 10; 0 is no effect, 10 is complete control), Giant foxtail (giant foxtail; Rate 250 g/ha, Postemergence): 0
Giant foxtail plant response rating (giant foxtail; [7]): 0
Wild oats plant response rating (wild oat; [1]): 0
Wild oats plant response rating (wild oat; [2]): 0
Plant response rating, Wild oats (wild oat; [3]): 2
Wild oats plant response rating (wild oat; [4]): 0
Wild oats plant response rating (wild oat; [5]): 0
Wild oats plant response rating (wild oat; [6]): 0
Plant response rating (0 to 10; 0 is no effect, 10 is complete control), Wild oats (wild oat; Rate 250 g/ha, Postemergence): 0
Wild oats plant response rating (wild oat; [7]): 0
B. signalgrass plant response rating (surinam grass; [1]): 0
B. signalgrass plant response rating (surinam grass; Preemergence, Rate 250 g/ha, scale 0 to 10, 0 is no effect, 10 is complete control): 0
Plant response rating, B. signalgrass (surinam grass; [3]): 3
B. signalgrass plant response rating (surinam grass; [4]): 0
B. signalgrass plant response rating (surinam grass; Rate 125 g/ha, Postemergence, scale 0 (no effect) to 10 (complete control)): 0
B. signalgrass plant response rating (surinam grass; [6]): 0
Plant response rating (0 to 10; 0 is no effect, 10 is complete control), B. signalgrass (surinam grass; Rate 250 g/ha, Postemergence): 0
B. signalgrass plant response rating (surinam grass; [7]): 0
Ducksalad plant response rating (duck salad; [8]): 0
Ducksalad plant response rating (duck salad; [9]): 0
Ducksalad plant response rating (duck salad; [10]): 0
Ducksalad plant response rating (duck salad; [11]): 0
S. Flatsedge plant response rating (smallflower flatsedge; [8]): 0
S. Flatsedge plant response rating (smallflower flatsedge; [9]): 0
S. Flatsedge plant response rating (smallflower flatsedge; [10]): 0
S. Flatsedge plant response rating (smallflower flatsedge; [11]): 0
